“Also recorded” adds a separate entry of the source. Where a name gives a salt, the structure may show the parent alone. Positions of bridges follow the written chain, without caps; N, C: chain ends. Non-standard residues stand in square brackets, D forms with d. Residues, ends and D or L forms follow the SMILES beside them. Dmt = Cc1cc(O)cc(C)c1C[C@H](N)C(=O)O; dPen = CC(C)(S)[C@@H](N)C(=O)O
Legend:
δ opioid receptors = δ opioid receptors (Rattus norvegicus, UniProt P33533); assay: Opiate Binding Assay, displacement of 3[H]-DSLET
μ opioid receptors = μ opioid receptors (Rattus norvegicus, UniProt P33535); assay: Opiate Binding Assay, displacement of 3[H]-DAMPGO
CD Charles River mice = assay: Writhing Assay (PBQ-induced writhing); assay type: in vivo, mouse; conditions: for number of mice out of ten in which peptide was active, Intragastric: 10 mg/kg i.g., PBQ i.p. 15 min after dosing; for ED50 value, subcutaneous: s.c.
Description: The "Writhing Assay" is one of the most widely-used experimental procedures for measuring the analgesic activity of different narcotic and nonnarcotic analgesic agents, and involves the continuous, chemically-induced pain of visceral origin to an animal, such as a mouse or rat. [Gyires et al., Arch. int. Pharmacodyn, 267, 131-140 (1984); C. Vander Wende et al., Fed. Proc., 15, 494 (1956); Koster et al., Fed. Proc., 18, 412 (1959); and Witken et al., J. Pharmacol. Exp. Ther., 133, 400-408 (1961). ] Chemicals which may be used to induce this pain include phenylbenzoquinone (PBQ) and acetic acid. As a result of the chemical irritation to the animal, a characteristic stretching and writhing of the animal (dorsiflexion of the animal's back, extension of its hindlimbs an the strong contraction of its abdominal musculature) will generally occur. […] Drugs which reduce the number of writhes of the animal appear to restore the normal nociceptive threshold of the animal.
This assay was conducted generally in the manner described by R. I. Taber, "Predictive Value of Analgesic Assays in Mice and Rats,"Advances in Biochemical Psychopharmacology, 8, 191 (1974). The Methyl Ester Tetrapeptide and Test Tetrapeptides Nos. 1, 3, 4, 5, 6, 7, 8 and 9 were tested in this assay.
Two hundred CD Charles River mice, weighing 20 to 30 grams were used in this assay.
Twenty-five minutes after subcutaneous administration, and fifteen minutes after intragastric administration, to the mice of 10 mg per kilogram of body weight of either a Test Tetrapeptide or the Methyl Ester Tetrapeptide, […] of body weight of a 0.025% w/v solution of PBQ was injected intraperitoneally into each mouse. Some mice were given saline in place of a Test Tetrapeptide or the Methyl Ester Tetrapeptide, and were used as a control group.
Five minutes later, each mouse was individually placed into a glass beaker for observation, and the number of writhes occurring during the following ten-minute period was counted.
A tetrapeptide compound was considered to be "active" (to have produced analgesia in a mouse) if, in accordance with the conditions set forth above, and under the test criteria employed for this assay, after the administration of 10 mg per kilogram of body weight of the tetrapeptide to the mouse, the number of writhes elicited by a mouse injected with PBQ was equal to, or less than, one-half the median number of writhes recorded for the saline-treated control group of mice that day, as described by R. I. Taber, supra.
The standard initial screening dose of a compound employed in this assay was 10 mg per kilogram (mpk) of body weight for both routes of administration. If this initial screening dose of the tetrapeptide produced analgesia in seven of ten mice, then the effect of additional doses of the tetrapeptide on the writhing response was evaluated, and then the ED50 value (that dose of a Test Tetrapeptide or the Methyl Ester Tetrapeptide which produced analgesia in 50% of the mice to which the tetrapeptide was administered) was generally calculated. A maximum likelihood function was used to determine the ED50 value. (The slopes of the dose-response curves for all tetrapeptides analyzed were compared as described by Tallarida and Murray, Manual of Pharmacologic Calculations, Page 11 (Springer Verlag, N.Y., 1981)).

[1] = test system: Charles River albino mice; assay: Hot Plate Assay (Hind Paw Lick Assay); assay type: in vivo, mouse
Description: (§1) The "Tail Flick Assay" and the "Hot Plate Assay" (also known as the "Hind Paw Lick Assay") use thermal pain of transient duration, and are tests in which the pain threshold of the mice or rats being analyzed has not been altered. They are useful for evaluating the ability of a compound or drug to increase the animal's pain threshold (i.e. prolong response latencies), rather than to restore normal thresholds.
(§2) The heat-induced response to the Tail Flick Assay is a reflex reaction mediated at the level of the spinal cord. The heat-induced response to the Hot Plate Assay, however, is a more complex behavior requiring integration at higher centers in the brain. […]
(§3) Tail flick response latencies (defined as the time that elapsed between the onset of a high intensity beam of light and the reflex removal of the mouse or rat's tail) and hot plate response latencies (defined as the time that elapsed between the placement of a mouse or rat on a 55 degrees Celsius surface and a lick of the hind paw) were separately, but consecutively, measured before (baseline) and again at fixed intervals after subcutaneous or intracerebroventricular administration of one of the tetrapeptide compounds of the invention, the Methyl Ester Tetrapeptide, the Mosberg Tetrapeptide, or after the administration of saline (controls). […]

[2] = test system: Charles River albino mice; assay: Tail Flick Assay; assay type: in vivo, mouse; conditions: listed as Test Tetrapeptide No. 1, monohydrochloride
Description: as §1, §2, §3

Chain of δ opioid receptors (P33533 whole entry): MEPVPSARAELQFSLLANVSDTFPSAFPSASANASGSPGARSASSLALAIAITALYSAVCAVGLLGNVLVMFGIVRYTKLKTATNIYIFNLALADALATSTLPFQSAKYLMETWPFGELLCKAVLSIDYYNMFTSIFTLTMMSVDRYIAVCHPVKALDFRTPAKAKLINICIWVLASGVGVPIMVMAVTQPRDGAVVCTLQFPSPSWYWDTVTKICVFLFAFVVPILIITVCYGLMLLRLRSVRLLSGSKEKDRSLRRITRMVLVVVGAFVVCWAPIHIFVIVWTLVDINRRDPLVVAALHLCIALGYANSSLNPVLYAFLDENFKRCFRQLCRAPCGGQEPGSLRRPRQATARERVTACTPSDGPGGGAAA
Chain of μ opioid receptors (P33535 whole entry): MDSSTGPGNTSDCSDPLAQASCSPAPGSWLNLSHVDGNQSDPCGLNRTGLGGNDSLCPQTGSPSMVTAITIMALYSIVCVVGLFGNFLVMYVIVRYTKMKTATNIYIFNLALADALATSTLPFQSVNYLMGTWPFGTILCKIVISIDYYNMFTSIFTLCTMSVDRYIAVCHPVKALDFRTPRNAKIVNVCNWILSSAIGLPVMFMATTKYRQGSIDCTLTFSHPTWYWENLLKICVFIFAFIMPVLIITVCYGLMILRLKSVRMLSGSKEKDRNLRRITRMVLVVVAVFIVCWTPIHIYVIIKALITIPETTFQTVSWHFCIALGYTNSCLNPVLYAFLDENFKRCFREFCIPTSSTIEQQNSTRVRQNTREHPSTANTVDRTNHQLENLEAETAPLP

Row | Compound | IC50 (δ opioid receptors) | IC50 (μ opioid receptors) | Percent Displacement (δ) (δ opioid receptors; at 100 nM, 3[H]-DSLET) | Percent Displacement (μ) (μ opioid receptors; at 100 nM, 3[H]-DAMPGO) | number of mice out of ten in which peptide was active, Intragastric (CD Charles River mice) | number of mice out of ten in which peptide was active, Subcutaneous (CD Charles River mice; 10 mg/kg s.c., PBQ i.p. 25 min after dosing) | activity (increase in hot plate latency), Intracerebroventricular ([1]; i.c.v., at 1.0 μg/kg) | activity (increase in hot plate latency), Subcutaneous ([1]; s.c., at 100 mpk, listed as Test Tetrapeptide No. 1, monohydrochloride, 100 mg/kg) | Mean IC50 Value μ/δ Ratio (δ opioid receptors; ratio of mean IC50 μ to δ, above 1.0 = more specific for δ) | activity (increase in tail flick latency), Intracerebroventricular ([2]; i.c.v., at 1 μg/kg) | activity (increase in tail flick latency), Subcutaneous ([2]; s.c., at 100 mpk, 100 mg/kg) | ED50 value, subcutaneous (CD Charles River mice) | ED50 value, subcutaneous (CD Charles River mice; PBQ i.p. 25 min after dosing)
1 | Cc1cc(O)cc(C)c1C[C@H](N)C(=O)N[C@@H]1CSSC(C)(C)[C@H](C(=O)O)NC(=O)[C@H](Cc2ccccc2)NC1=O [Example 4, 2,6-dimethyl-L-tyrosyl-D-cysteinyl-L-phenylalanyl-3-mercapto-D-valine, cyclic (2→4)-disulfide] (H-[Dmt][dC]F[dPen]-OH; disulfide 2-4) | 0.4 nM | 5.4 nM | – | – | – | – | – | – | – | – | – | – | –
2 | 2,6-dimethyl-L-tyrosyl-D-cysteinyl-4-chloro-L-phenylalanyl-3-mercapto-D-valine, cyclic (2→4)-disulfide, methyl ester, monohydrochloride [Example 32] | – | – | 44% | 18% | 4/10 | 4/10 | – | – | – | – | – | – | –
3 | COC(=O)[C@@H]1NC(=O)[C@H](Cc2ccccc2)NC(=O)[C@H](NC(=O)[C@@H](N)Cc2c(C)cc(O)cc2C)CSSC1(C)C [Example 25, 2,6-dimethyl-L-tyrosyl-D-cysteinyl-L-phenylalanyl-3-mercapto-D-valine, cyclic (2→4)-disulfide. methyl ester, monohydrochloride] (H-[Dmt][dC]F[dPen]-OMe; disulfide 2-4) | – | – | – | – | 3/10 | – | Active | Active; also recorded: showed activity | 1.2 | active | Active; also recorded: showed activity | 4.1 mg per kg of body weight | 4.1 mpk
